# Experimental data reported in publication PMC6522912, “Evaluation of the published kinase inhibitor set to identify multiple inhibitors of bacterial ATP-dependent mur ligases” (Journal of Enzyme Inhibition and Medicinal Chemistry, 2019).
# Like-named read-outs stand apart in the source and are kept apart here.
# Key:
# E. coli MurF = E. coli MurF (Escherichia coli, UniProt P11880); assay: biochemical; conditions: for remaining activity at 100 µM: 0.25 h, read-out: RA [%] at 100 µM MurF
# E. coli MurD = E. coli MurD (Escherichia coli, UniProt P14900); assay: biochemical; conditions: for remaining activity at 100 µM: 0.25 h, read-out: RA [%] at 100 µM MurD
# Sequence of E. coli MurD (P14900 whole entry): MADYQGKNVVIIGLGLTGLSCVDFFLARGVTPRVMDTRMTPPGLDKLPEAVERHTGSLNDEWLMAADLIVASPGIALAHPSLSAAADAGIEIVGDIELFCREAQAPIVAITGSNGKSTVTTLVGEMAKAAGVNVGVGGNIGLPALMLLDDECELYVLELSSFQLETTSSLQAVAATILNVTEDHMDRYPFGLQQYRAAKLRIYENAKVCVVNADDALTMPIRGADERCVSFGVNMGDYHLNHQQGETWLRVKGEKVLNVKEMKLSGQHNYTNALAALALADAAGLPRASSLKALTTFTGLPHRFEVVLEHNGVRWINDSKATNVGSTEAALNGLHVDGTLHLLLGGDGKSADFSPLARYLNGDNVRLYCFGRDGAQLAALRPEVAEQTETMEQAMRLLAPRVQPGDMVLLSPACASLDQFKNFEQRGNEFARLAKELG
# Outline: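 Reaction 15 min at 37 °C, then phosphate detected with Biomol green at 650 nm. Values are residual activity versus 5% DMSO carrier controls.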
# E. coli MurC = E. coli MurC (Escherichia coli, UniProt P17952); assay: Malachite green inhibition assay, MurC; format: biochemical; conditions: for remaining activity at 100 µM: 0.25 h, read-out: RA [%] at 100 µM MurC
# Sequence of E. coli MurC (P17952 whole entry): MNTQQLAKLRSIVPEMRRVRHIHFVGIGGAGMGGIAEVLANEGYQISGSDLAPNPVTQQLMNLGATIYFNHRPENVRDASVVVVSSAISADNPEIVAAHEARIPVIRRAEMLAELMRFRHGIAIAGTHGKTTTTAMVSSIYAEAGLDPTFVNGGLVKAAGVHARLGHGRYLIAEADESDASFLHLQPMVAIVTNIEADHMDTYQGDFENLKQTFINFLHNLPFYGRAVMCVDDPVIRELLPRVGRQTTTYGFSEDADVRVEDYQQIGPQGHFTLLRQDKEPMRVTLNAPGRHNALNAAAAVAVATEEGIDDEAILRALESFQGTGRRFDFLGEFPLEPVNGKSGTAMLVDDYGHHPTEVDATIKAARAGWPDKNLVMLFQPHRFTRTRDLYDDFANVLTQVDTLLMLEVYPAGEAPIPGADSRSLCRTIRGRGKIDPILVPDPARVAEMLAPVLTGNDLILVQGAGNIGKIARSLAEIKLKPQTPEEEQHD
# [1] = Table S3, aza stilbene compounds
# Sequence of E. coli MurF (P11880 whole entry): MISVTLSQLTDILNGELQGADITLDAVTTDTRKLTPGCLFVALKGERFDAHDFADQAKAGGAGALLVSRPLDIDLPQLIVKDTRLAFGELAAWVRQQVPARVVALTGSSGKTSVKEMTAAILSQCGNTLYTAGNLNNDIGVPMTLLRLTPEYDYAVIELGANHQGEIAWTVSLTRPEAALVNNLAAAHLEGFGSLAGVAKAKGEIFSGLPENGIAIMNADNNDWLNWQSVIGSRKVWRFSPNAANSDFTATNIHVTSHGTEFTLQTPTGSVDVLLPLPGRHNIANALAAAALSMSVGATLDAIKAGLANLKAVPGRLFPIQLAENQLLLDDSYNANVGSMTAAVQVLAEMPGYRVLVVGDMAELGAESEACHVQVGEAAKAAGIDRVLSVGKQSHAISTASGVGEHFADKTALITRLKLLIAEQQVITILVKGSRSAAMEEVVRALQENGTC
Compound,"remaining activity at 100 µM (E. coli MurF; Table S1, PKIS screening)","remaining activity at 100 µM (E. coli MurD; Table S1, PKIS screening)","remaining activity at 100 µM (E. coli MurC; Table S1, PKIS screening)",also measured
Cc1ccc2c(c1)C(=NNc1ccc(S(N)(=O)=O)cc1)C(=O)N2 [GW275944X],83%,87%,92%,–
CC(C)c1ccc(Nc2nccc(-c3cnn4ncccc34)n2)cc1 [GW805758X],68%,57%,64%,–
NC(=O)c1cccc(Nc2nccc(Nc3cccc4[nH]ncc34)n2)c1 [GW782612X],77%,92%,86%,–
SB-675259-M,–,–,–,"RA [%] at 100 µM MurF (E. coli MurF; Table S1, PKIS screening): 100%; RA [%] at 100 µM MurD (E. coli MurD): 80; RA [%] at 100 µM MurC (E. coli MurC; Table S1, PKIS screening): 72%"
Fc1ccc(-c2ncn(C3CCNCC3)c2-c2ccnc(Oc3ccc(Oc4ccccc4)cc3)n2)cc1 [SB-245392],41%,41%,27%,–
c1cnn2ncc(-c3ccnc(Nc4ccc5c(c4)OCCO5)n3)c2c1 [GW806290X],71%,69%,64%,–
O=C1NC(=O)C(c2ccc(Cl)cc2)=C1Nc1ccc(Cl)c(C(=O)O)c1 [SB-360741],83%,86%,84%,–
Cl.Oc1cccc(-c2nc(-c3ccccc3)[nH]c2-c2ccncc2)c1 [SB-610251-B],–,–,–,"RA [%] at 100 µM MurF (E. coli MurF; Table S1, PKIS screening): 96%; RA [%] at 100 µM MurD (E. coli MurD): 13; RA [%] at 100 µM MurC (E. coli MurC; Table S1, PKIS screening): 74%"
O=C1NC(=O)C(c2ccccc2Cl)=C1Nc1cccc(O)c1 [SB-390527],88%,83%,50%,–
NC(=O)c1ccc2c(-c3ccnc(NCCCO)n3)c(-c3ccc(F)cc3)nn2c1 [GW581744X],79%,74%,73%,–
Cc1cc(O)cc(C)c1/C=C/c1cncc(C(N)=O)c1 [GW435821X],75%,89%,89%,–
CC1=C(C(=O)Nc2ccc3[nH]nc(C)c3c2)C(c2ccc(C(F)(F)F)cc2)CC(=O)N1 (stereo not drawn) [GSK466314A],79%,100%,79%,–
[O-][S+]1CCN(Cc2ccc(-c3ccc4ncnc(Nc5ccc(OCc6ccccc6)c(Cl)c5)c4c3)o2)CC1 [GW583373A],60%,59%,62%,–
O=C(Nc1n[nH]c2cc(-c3ccc(F)cc3)ccc12)C1CC1 [SB-735467],103%,75%,51%,–
COc1cc2ncnc(Nc3ccc4c(cnn4Cc4ccccc4)c3)c2cc1OC [GW282449A],56%,62%,53%,–
c1ccc(Cc2nc3ccc(Nc4ncnc5ccccc45)cc3[nH]2)cc1 [GR269666A],96%,83%,77%,–
NS(=O)(=O)c1ccc(NN=C2C(=O)Nc3ccc(C(=O)NCCCn4ccnc4)cc32)cc1 [GW290597X],100%,92%,63%,–
Fc1ccc(-c2ncn(C3CCNCC3)c2-c2ccnc(Oc3ccc(F)c(F)c3)n2)cc1 [SB-253228],70%,40%,32%,–
CC1=C(C(=O)Nc2ccc3[nH]ncc3c2)C(c2ccc(F)cc2)NC(c2ccc(C(F)(F)F)nc2)=N1 (stereo not drawn) [GSK317354A],96%,96%,68%,–

Compound,"remaining activity at 100 µM (E. coli MurF; Table S1, PKIS screening)","remaining activity at 100 µM (E. coli MurD; Table S1, PKIS screening)","remaining activity at 100 µM (E. coli MurC; Table S1, PKIS screening)",also measured
COC(=O)Nc1nc2ccc(S(=O)(=O)c3ccc(NC(=O)Nc4cc(C(F)(F)F)ccc4F)cc3)cc2[nH]1 [GW680908A],97%,69%,77%,–
SB-739245-AC,–,–,–,"RA [%] at 100 µM MurF (E. coli MurF; Table S1, PKIS screening): 95%; RA [%] at 100 µM MurD (E. coli MurD): 99%; RA [%] at 100 µM MurC (E. coli MurC; Table S1, PKIS screening): 61%"
N#Cc1cccc(Nc2nccc(-c3cnn4ncccc34)n2)c1 [GW778894X],68%,70%,66%,–
Cc1nn(C)c2cc(N(C)c3ccnc(Nc4cccc(S(N)(=O)=O)c4)n3)ccc12 [GW770220A],74%,86%,91%,–
CCCN(CCS(C)(=O)=O)Cc1ccc(-c2ccc3ncnc(Nc4ccc(OCc5cccc(F)c5)c(Cl)c4)c3c2)o1 [GW621823A],96%,42%,36%,–
NC(=O)c1cc(-c2ccc(F)cc2)cc(-c2ccncc2)c1N [GSK620503A],80%,71%,94%,–
Nc1nc(-c2ccccn2)c(-c2ccc3ncccc3n2)s1 [GW693481X],94%,88%,99%,–
COC(=O)Nc1nc2ccc(Oc3ccc(NC(=O)Nc4cccc(Br)c4)cc3)cc2[nH]1 [GW694234A],72%,86%,71%,–
CCn1c(-c2nonc2N)nc2cnc(Oc3cccc(NC(=O)c4ccc(OCCN5CCOCC5)cc4)c3)cc21 [GSK269962B],66%,58%,57%,–
CCS(=O)(=O)c1ccc(OC)c(Nc2ncc(-c3ccccc3Cl)o2)c1 [GW622055X],80%,65%,74%,–
CCS(=O)(=O)c1ccc(OC)c(Nc2ncc(-c3cccc(-c4ccccc4F)c3)o2)c1 [GW678313X],82%,64%,87%,–
CNC(=O)c1cc(-c2ccc(F)cc2)cc(-c2ccc(S(=O)(=O)N3CCCC3)cc2)c1N [GSK635416A],88%,43%,71%,–
COc1cc(N2CCN(C(C)C)CC2)ccc1Nc1nc(Nc2ccc(F)cc2C(=O)NC[C@@H](O)CO)c2cc[nH]c2n1 [GSK1392956A],90%,76%,65%,–
Cc1cc(O)cc(C)c1C=Cc1cncc(-c2nn[nH]n2)c1 [Compound 7],–,–,–,RA (%) MurF (E. coli MurF; [1]): 90%; RA (%) MurD (E. coli MurD): 91%; RA (%) MurC (E. coli MurC; [1]): 70%
COc1cccc(-n2ncc3c(N/N=C/c4ccc(F)cc4)ncnc32)c1 [GW817396X],41%,95%,69%,–
CNC(=O)Oc1cc(C)c(/C=C/c2cncc(C(=O)NC)c2)c(C)c1 [GW432441X],–,69%,–,remaining activity at 100 µM (E. coli MurF): 87%; remaining activity at 100 µM (E. coli MurC): 68%
Cc1cccc(-c2n[nH]cc2-c2ccc3ncccc3n2)n1 [GW786460X],–,–,82%,remaining activity at 100 µM (E. coli MurF): 91%; remaining activity at 100 µM (E. coli MurD): 76%
COc1cc2ncn(-c3cc(OCc4ccccc4C(F)(F)F)c(C(=O)N(C)C)s3)c2cc1OC [GSK1030062A],63%,76%,68%,–
CC(C)c1ccc2c(c1)NC(=O)C2=NNc1ccc(S(N)(=O)=O)cc1 [GW300653X],75%,85%,100%,–
